#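 Five compound concentrations were applied to cells in 96-well plates for 48 hours; endpoints were derived by simple linear interpolation of the resulting dose-response curve. TGI: concentration producing complete growth inhibition.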
# Assays:
# Test in all cases: DTP human tumour cell line panel, 48 h
# A498 renal = tested on: A498 renal
# BT-549 breast = tested on: BT-549 breast
# HS 578T breast = tested on: HS 578T breast
# HT29 colon = tested on: HT29 colon
# NCI-H226 lung = tested on: NCI-H226 lung
# NCI-H522 lung = tested on: NCI-H522 lung
# OVCAR-3 ovarian = tested on: OVCAR-3 ovarian
# OVCAR-8 ovarian = tested on: OVCAR-8 ovarian
# T-47D breast = tested on: T-47D breast
# RPMI-8226 leukemia = tested on: RPMI-8226 leukemia
Structure (SMILES),TGI (A498 renal) [µM],TGI (BT-549 breast) [µM],TGI (HS 578T breast) [µM],TGI (HT29 colon) [µM],TGI (NCI-H226 lung) [µM],TGI (NCI-H522 lung) [µM],TGI (OVCAR-3 ovarian) [µM],TGI (OVCAR-8 ovarian) [µM],TGI (T-47D breast) [µM],TGI (RPMI-8226 leukemia) [µM]
CCSC12OC3(CCCCCN3C1=O)C1C(=O)N(c3ccccc3)C(=O)C12 (stereo unspecified),> 100,> 100,> 100,> 100,> 100,> 100,> 100,> 100,> 100,–
C=C1c2c(n(S(=O)(=O)c3ccccc3)c3ccccc23)[C@@]2(C(=O)OC)CC3C=CC2N1C3,–,> 100,–,> 100,> 100,> 100,> 100,> 100,> 100,> 100
COP(=O)(CP(=O)(OC)OCCC(C)CCC=C(C)C)OC (stereo unspecified),> 100,> 100,–,–,> 100,> 100,> 100,> 100,> 100,–
CC1(C)CC(=O)C(CC2C(=O)CCCC2=O)C(=O)C1,> 100,–,–,> 100,> 100,> 100,> 100,> 100,–,–
C=CC(=O)N1C/C(=C\c2ccc(OC)cc2)C(=O)/C(=C/c2ccc(OC)cc2)C1,3.54,6.24,> 28.7,2.88,4.6,–,5.67,> 24.2,> 100,> 100
Cc1ccc(C)n1-c1ccccc1C1C=Cn2c(=O)oc3c(OC(C)C)c(OC(C)C)c(O)c1c32 (stereo unspecified),> 100,> 100,> 100,> 100,36.1,75.5,> 100,> 100,–,> 100
N#Cc1c(/C=C/c2ccccc2)c2c([nH]c1=S)CCCCC2,> 100,–,> 100,> 100,> 100,> 100,> 100,> 100,> 100,> 100
C/C(=N\N=C(N)N)C(CN1CCOCC1)C(c1ccccc1)c1c(O)c2ccccc2oc1=O (stereo unspecified),–,–,–,> 100,> 100,> 100,> 100,> 100,–,> 100
O=C1Sc2ccccc2C(=O)N2CCSC12 (stereo unspecified),> 100,–,–,–,–,–,> 100,> 100,–,> 100
CC(=O)NC1C(OCc2ccccc2)OC(CO)C(O)C1OC(C)C(=O)NC(C(=O)NC(CCC(=O)NCCCNc1ccc([N+](=O)[O-])c2[nH]c3ccccc3c(=O)c12)C(N)=O)C(C)C (stereo unspecified),> 100,> 100,> 100,> 100,> 100,> 100,> 100,> 100,> 100,–
O=C1CCC2(O)c3ccccc3C2Cc2ccccc21 (stereo unspecified),–,–,–,> 100,> 100,–,> 100,> 100,–,> 100
OC(CCN1CCN(CCOC(c2ccccc2)c2ccccc2)CC1)c1ccccc1 (stereo unspecified),21.6,60.5,45,33.5,88.2,32.7,81.1,33,48.8,–
CC(=O)C(CN1C(=O)c2ccccc2C1=O)C(C)=O,> 100,> 100,> 100,> 100,> 100,> 100,> 100,> 100,> 100,–
COc1ccc(C2N(c3ccc(C)c(N=C=O)c3)C(=O)N3C(c4ccc(OC)cc4)N(c4ccc(C)c(N=C=O)c4)C(=O)N23)cc1 (stereo unspecified),> 100,> 100,–,> 100,> 100,–,> 100,> 100,–,> 100
Clc1ccc(C2SCc3nc4ccccc4n32)cc1 (stereo unspecified),55.5,–,–,49.4,75.4,44.4,> 100,> 100,–,44.1
C=C(C)C1(Sc2ccc(OC)cc2)CC1,> 100,58,–,61.8,54.7,–,29.7,> 100,> 100,> 100
COc1cc2c3c(n(C)c(=O)c2cc1OC)-c1cc2c(cc1/C3=C\CCCCl)OCO2,80.7,> 100,> 100,> 100,–,> 100,–,> 100,> 100,–
N#CC1=C(O)NC(O)=C(C#N)C1c1c(Cl)cccc1Cl,64.5,–,–,> 100,64.9,> 100,> 100,45,–,> 100
NC1(c2cc3ccccc3s2)CCCCCC1,35.2,32.6,–,29.3,38.4,–,29.2,35.8,–,–
COc1ccc(C(C2=C(O)CC(C)OC2=O)C2=C(O)CC(C)OC2=O)cc1 (stereo unspecified),–,–,–,> 100,> 100,> 100,> 100,> 100,–,> 100
COCC(C#N)NC1CC(OC2CC(O)(C(=O)CO)Cc3c(O)c4c(c(O)c32)C(=O)c2c(OC)cccc2C4=O)OC(C)C1O (stereo unspecified),0.448,0.653,1.32,9.03,0.117,0.193,3,0.549,–,1.15
CC(C)(C)OC(=O)N1C(=O)C2CCCC21 (stereo unspecified),> 100,> 100,> 100,> 100,> 100,–,> 100,> 100,> 100,> 100
CCCCCCc1ccc(CCCCCCCC(=O)O)o1,–,> 100,–,> 100,> 100,–,> 100,> 100,> 100,> 100
CCOC(=O)c1sc2nc(SC)nc3c2c1NCN3C,57.6,> 100,59.4,> 100,> 100,–,> 100,25.9,25.9,> 100

# — PubChem BioAssay (NCI)
